The values that follow come from ChEMBL document CHEMBL1777761, “Tryptamine derivatives as novel non-nucleosidic inhibitors against hepatitis B virus” (Bioorg Med Chem, 2011).

pIC50: −log10 of the molar value.

The nature of data set [1]: Cytotoxicity against human HepG2(2.2.15) cells after 8 days by MTT assay. The format is cell-based.
Data set [2] concerns Hepatitis B virus. The data set is described as follows: Antiviral activity against Hepatitis B virus infected in human HepG2(2.2.15) cells assessed as inhibition of viral DNA replication after 4 days by RT-PCR analysis. The format is functional, organism-based. The following applies: HepG2 2.2.15, 96 h.
Data set [3] in a line: Selectivity index, ratio of CC50 for human HepG2.2.15 cells to IC50 for Hepatitis B virus. The format is functional.

For the molecule `CC[N+]([O-])(CC)CCc1c[nH]c2ccccc12`, the CC50 at 192 h in data set [1] is over 100 µM. Also, the pIC50 in data set [2] is under 4.00.

`CCC[N+]([O-])(CCC)CCc1c[nH]c2ccccc12` displayed a CC50 at 192 h in data set [1] of over 100 µM. The pIC50 in data set [2] was under 4.00.

`[O-][N+](CCc1c[nH]c2ccccc12)(CC1CC1)CC1CC1` displayed a CC50 at 192 h in data set [1] of over 100 µM. The pIC50 in data set [2] was under 4.00.

In turn, `[O-][N+](CCc1c[nH]c2ccccc12)(CC1CCCCC1)CC1CCCCC1` yielded a CC50 at 192 h in data set [1] of 23.1 µM. In addition, the pIC50 in data set [2] is under 4.00.

`c1coc(CN(CCc2c[nH]c3ccccc23)Cc2ccco2)c1` displayed a CC50 at 192 h in data set [1] of 27.3 µM. Moreover, the “Ratio CC50/IC50” value in data set [3] was found to be 7.8. Further, the pIC50 in data set [2] is 5.46.

Consider `[O-][N+](CCc1c[nH]c2ccccc12)(Cc1ccco1)Cc1ccco1`, for which, in data set [1], the CC50 at 192 h is over 100 µM. In addition, the “Ratio CC50/IC50” value in data set [3] is given as over 13.3. For the same molecule, the pIC50 in data set [2] is 5.12.

In the case of `CC(C)CCN(C)CCc1c[nH]c2ccccc12`, the CC50 at 192 h in data set [1] is over 25 µM. Moreover, the pIC50 in data set [2] is under 4.60.

In data set [1], `C[N+](C)([O-])CCc1c[nH]c2ccc(Br)cc12` returned a CC50 at 192 h of over 25 µM. The “Ratio CC50/IC50” value in data set [3] was over 4.6. Also, the pIC50 in data set [2] is 5.27.

`[O-][N+](CCc1c[nH]c2ccccc12)(Cc1ccccc1)Cc1ccccc1`: the cytotoxic concentration (CC50) at 192 h in data set [1] was over 100 µM. In addition, the pIC50 in data set [2] is under 4.00.

As for `CC(C)CCN(CCc1c[nH]c2ccccc12)CCC(C)C`, the CC50 at 192 h in data set [1] was found to be 40.6 µM. For the same molecule, in data set [3], the “Ratio CC50/IC50” value was 102. Besides, the pIC50 in data set [2] was 6.40.

In turn, `CCN(CCc1c[nH]c2ccccc12)CCC(C)C` gave a CC50 at 192 h in data set [1] of over 25 µM. The pIC50 in data set [2] was under 4.60.

Take `C[N+](C)([O-])CCc1c[nH]c2ccccc12`: the CC50 at 192 h in data set [1] is over 100 µM. For the same molecule, in data set [3], the “Ratio CC50/IC50” value is over 5.7. Also, the pIC50 in data set [2] was 4.75.

The molecule `CC(C)CCNCCc1c[nH]c2ccccc12` came in with a CC50 at 192 h in data set [1] of over 25 µM. Moreover, the pIC50 in data set [2] was under 4.60.

On to `CC(C)CCN(CCc1c[nH]c2ccccc12)Cc1cccs1`, for which, in data set [1], the CC50 at 192 h was over 25 µM. The “Ratio CC50/IC50” value in data set [3] is recorded as over 2.5. Moreover, in data set [2], the pIC50 is 5.00.

Take `[O-][N+](CCc1c[nH]c2ccccc12)(Cc1cccs1)Cc1cccs1`: the CC50 at 192 h in data set [1] was over 100 µM. Moreover, the “Ratio CC50/IC50” value in data set [3] is listed as over 10.6. For the same molecule, the pIC50 in data set [2] is 5.03.

Molecule `c1ccc(CN(CCc2c[nH]c3ccccc23)Cc2ccccn2)nc1` yielded a CC50 at 192 h in data set [1] of 5.8 µM. For the same molecule, the pIC50 in data set [2] was under 4.60.

The molecule `C[N+](C)([O-])CCc1c[nH]c2ccc(O)cc12` yielded a CC50 at 192 h in data set [1] of over 25 µM. Further, the “Ratio CC50/IC50” value in data set [3] was over 25. Besides, the pIC50 in data set [2] is over 6.00.

In data set [1], `CCN(CC)CCc1c[nH]c2ccccc12` [DIETHYLTRYPTAMINE] yielded a CC50 at 192 h of over 100 µM. In data set [2], the pIC50 was under 4.00.

With `Nc1ccn([C@@H]2CS[C@H](CO)O2)c(=O)n1` [LAMIVUDINE], it took 1170 µM to reach half-maximal cytotoxicity in data set [1] (CC50 at 192 h). Besides, the “Ratio CC50/IC50” value in data set [3] is given as 3557. Also, the negative-log IC50 (pIC50) in data set [2] was 6.48.

As for `[O-][N+](CCc1c[nH]c2ccccc12)(Cc1ccccn1)Cc1ccccn1`, the midpoint of cytotoxicity in data set [1], the CC50 at 192 h, lay at 56.5 µM. Also, the pIC50 in data set [2] is under 4.00.

Molecule `c1ccc(CN(CCc2c[nH]c3ccccc23)Cc2ccccc2)cc1` showed a CC50 at 192 h in data set [1] of 12.4 µM. For the same molecule, in data set [3], the “Ratio CC50/IC50” value is reported as 0.95. In data set [2], the pIC50 is 4.89.

For `CC(C)CCN(CCc1c[nH]c2ccccc12)CC(C)C`, the CC50 at 192 h in data set [1] was over 25 µM. Also, the “Ratio CC50/IC50” value in data set [3] is given as over 23. The pIC50 in data set [2] is 5.96.

Molecule `CC(C)C[N+]([O-])(CCc1c[nH]c2ccccc12)CC(C)C` registered a CC50 at 192 h in data set [1] of over 100 µM. In data set [2], the pIC50 is under 4.00.

As for `O=[N+]([O-])c1cccc(CN(CCc2c[nH]c3ccccc23)Cc2cccc([N+](=O)[O-])c2)c1`, the CC50 at 192 h in data set [1] was over 100 µM. Also, the pIC50 in data set [2] was under 4.00.

Turning to `c1ccc2c(CCN(CC3CC3)CC3CC3)c[nH]c2c1`, in data set [1], the CC50 at 192 h is over 100 µM. In addition, the “Ratio CC50/IC50” value in data set [3] was over 16.7. Moreover, the pIC50 in data set [2] was 5.22.

Molecule `CC(C)CN(CCc1c[nH]c2ccccc12)CC(C)C` displayed a CC50 at 192 h in data set [1] of over 100 µM. Besides, the “Ratio CC50/IC50” value in data set [3] is on record as over 8.2. Further, the pIC50 in data set [2] was 4.91.

`CCCN(CCC)CCc1c[nH]c2ccccc12` displayed a CC50 at 192 h in data set [1] of over 100 µM. Also, the pIC50 in data set [2] was under 4.00.

On to `CCCN(CCc1c[nH]c2ccccc12)CCC(C)C`, for which, in data set [1], the CC50 at 192 h is over 25 µM. Moreover, the “Ratio CC50/IC50” value in data set [3] is listed as over 1.25. Moreover, the pIC50 in data set [2] is 4.70.

In data set [1], `CC(C)CC[N+]([O-])(CCc1c[nH]c2ccccc12)CCC(C)C` displayed a CC50 at 192 h of 77.6 µM.

For `CC(C)CCN(CCc1c[nH]c2ccccc12)Cc1ccco1`, the CC50 at 192 h in data set [1] was over 25 µM. Further, the “Ratio CC50/IC50” value in data set [3] was over 4.7. Also, the pIC50 in data set [2] was 5.28.

In data set [1], `CN(C)CCc1c[nH]c2ccccc12` [N,N-DIMETHYLTRYPTAMINE] had a CC50 at 192 h of over 100 µM. Besides, the pIC50 in data set [2] is under 4.00.

In the case of `COc1cc(OC)c(OC)cc1CN(CCc1c[nH]c2ccccc12)Cc1cc(OC)c(OC)cc1OC`, in data set [1], the midpoint of cytotoxicity, the CC50 at 192 h, lay at 21 µM. Moreover, the “Ratio CC50/IC50” value in data set [3] is on record as 17.2. Moreover, the pIC50 in data set [2] is 5.92.

In data set [1], `c1ccc2c(CCN(CC3CCCCC3)CC3CCCCC3)c[nH]c2c1` returned a CC50 at 192 h of over 33.3 µM. Moreover, the pIC50 in data set [2] is under 4.00.

Regarding `CC(C)CCN(CCc1cn(S(=O)(=O)c2ccccc2)c2ccccc12)CCC(C)C`, in data set [1], the midpoint of cytotoxicity, the CC50 at 192 h, lay at 15 µM. Moreover, the pIC50 in data set [2] was under 4.60.

Turning to `c1csc(CN(CCc2c[nH]c3ccccc23)Cc2cccs2)c1`, in data set [1], the CC50 at 192 h was over 33.3 µM. Further, the “Ratio CC50/IC50” value in data set [3] is reported as over 8.5. For the same molecule, in data set [2], the pIC50 is 5.41.

Molecule `C[N+](C)([O-])CCc1c[nH]c2ccc(Cl)cc12` came in with a CC50 at 192 h in data set [1] of over 25 µM. Further, the “Ratio CC50/IC50” value in data set [3] is reported as over 3. In data set [2], the pIC50 was 5.08.
